Where two headings read alike, the source gives them in different places.
Key:
HCV RdRp (NS5B) = HCV RdRp (NS5B) (UniProt P26663); format: biochemical, hepatitis C virus
[1] = test system: Huh-7 cells, genotype 1b HCV replicon; assay: Inhibition of HCV replication in cell culture, genotype 1b replicon; format: cell-based, hepatitis C virus; details: for EC50: Huh-7, genotype 1b replicon, intracellular HCV RNA 24 h after 3 daily doses; for Selectivity Index (CC50/EC50): genotype 1b replicon, CC50 by neutral red uptake
Experimental: Test compounds were solubilized at 30 mM in 100% tissue culture grade DMSO (Sigma, Inc.). Aliquots of test compounds sufficient for one daily treatment were made in individual tubes and all material was stored at −20° C. On each day of treatment, daily aliquots of the test compounds were suspended in culture medium at room temperature and immediately added to the cell cultures. Compounds were added to dividing cultures once daily for three days at concentrations ranging from about 30 μM to about 0.0003 μM. Media was changed with each addition of compound. The assays were started when cell cultures were at about 30-50% confluence, and the cells reached confluence during the last day of treatment. The assays included untreated control cultures (six total), and triplicate cultures treated with α-interferon and ribavirin as positive antiviral and toxicity controls.
Intracellular HCV RNA levels and cytotoxicity were assessed in triplicate 24 hours after the last compound dose.

[2] = Hepatitis C virus, Huh-7, 24 h, read-out: EC50

Chain of HCV RdRp (NS5B) (P26663 whole entry, looked up): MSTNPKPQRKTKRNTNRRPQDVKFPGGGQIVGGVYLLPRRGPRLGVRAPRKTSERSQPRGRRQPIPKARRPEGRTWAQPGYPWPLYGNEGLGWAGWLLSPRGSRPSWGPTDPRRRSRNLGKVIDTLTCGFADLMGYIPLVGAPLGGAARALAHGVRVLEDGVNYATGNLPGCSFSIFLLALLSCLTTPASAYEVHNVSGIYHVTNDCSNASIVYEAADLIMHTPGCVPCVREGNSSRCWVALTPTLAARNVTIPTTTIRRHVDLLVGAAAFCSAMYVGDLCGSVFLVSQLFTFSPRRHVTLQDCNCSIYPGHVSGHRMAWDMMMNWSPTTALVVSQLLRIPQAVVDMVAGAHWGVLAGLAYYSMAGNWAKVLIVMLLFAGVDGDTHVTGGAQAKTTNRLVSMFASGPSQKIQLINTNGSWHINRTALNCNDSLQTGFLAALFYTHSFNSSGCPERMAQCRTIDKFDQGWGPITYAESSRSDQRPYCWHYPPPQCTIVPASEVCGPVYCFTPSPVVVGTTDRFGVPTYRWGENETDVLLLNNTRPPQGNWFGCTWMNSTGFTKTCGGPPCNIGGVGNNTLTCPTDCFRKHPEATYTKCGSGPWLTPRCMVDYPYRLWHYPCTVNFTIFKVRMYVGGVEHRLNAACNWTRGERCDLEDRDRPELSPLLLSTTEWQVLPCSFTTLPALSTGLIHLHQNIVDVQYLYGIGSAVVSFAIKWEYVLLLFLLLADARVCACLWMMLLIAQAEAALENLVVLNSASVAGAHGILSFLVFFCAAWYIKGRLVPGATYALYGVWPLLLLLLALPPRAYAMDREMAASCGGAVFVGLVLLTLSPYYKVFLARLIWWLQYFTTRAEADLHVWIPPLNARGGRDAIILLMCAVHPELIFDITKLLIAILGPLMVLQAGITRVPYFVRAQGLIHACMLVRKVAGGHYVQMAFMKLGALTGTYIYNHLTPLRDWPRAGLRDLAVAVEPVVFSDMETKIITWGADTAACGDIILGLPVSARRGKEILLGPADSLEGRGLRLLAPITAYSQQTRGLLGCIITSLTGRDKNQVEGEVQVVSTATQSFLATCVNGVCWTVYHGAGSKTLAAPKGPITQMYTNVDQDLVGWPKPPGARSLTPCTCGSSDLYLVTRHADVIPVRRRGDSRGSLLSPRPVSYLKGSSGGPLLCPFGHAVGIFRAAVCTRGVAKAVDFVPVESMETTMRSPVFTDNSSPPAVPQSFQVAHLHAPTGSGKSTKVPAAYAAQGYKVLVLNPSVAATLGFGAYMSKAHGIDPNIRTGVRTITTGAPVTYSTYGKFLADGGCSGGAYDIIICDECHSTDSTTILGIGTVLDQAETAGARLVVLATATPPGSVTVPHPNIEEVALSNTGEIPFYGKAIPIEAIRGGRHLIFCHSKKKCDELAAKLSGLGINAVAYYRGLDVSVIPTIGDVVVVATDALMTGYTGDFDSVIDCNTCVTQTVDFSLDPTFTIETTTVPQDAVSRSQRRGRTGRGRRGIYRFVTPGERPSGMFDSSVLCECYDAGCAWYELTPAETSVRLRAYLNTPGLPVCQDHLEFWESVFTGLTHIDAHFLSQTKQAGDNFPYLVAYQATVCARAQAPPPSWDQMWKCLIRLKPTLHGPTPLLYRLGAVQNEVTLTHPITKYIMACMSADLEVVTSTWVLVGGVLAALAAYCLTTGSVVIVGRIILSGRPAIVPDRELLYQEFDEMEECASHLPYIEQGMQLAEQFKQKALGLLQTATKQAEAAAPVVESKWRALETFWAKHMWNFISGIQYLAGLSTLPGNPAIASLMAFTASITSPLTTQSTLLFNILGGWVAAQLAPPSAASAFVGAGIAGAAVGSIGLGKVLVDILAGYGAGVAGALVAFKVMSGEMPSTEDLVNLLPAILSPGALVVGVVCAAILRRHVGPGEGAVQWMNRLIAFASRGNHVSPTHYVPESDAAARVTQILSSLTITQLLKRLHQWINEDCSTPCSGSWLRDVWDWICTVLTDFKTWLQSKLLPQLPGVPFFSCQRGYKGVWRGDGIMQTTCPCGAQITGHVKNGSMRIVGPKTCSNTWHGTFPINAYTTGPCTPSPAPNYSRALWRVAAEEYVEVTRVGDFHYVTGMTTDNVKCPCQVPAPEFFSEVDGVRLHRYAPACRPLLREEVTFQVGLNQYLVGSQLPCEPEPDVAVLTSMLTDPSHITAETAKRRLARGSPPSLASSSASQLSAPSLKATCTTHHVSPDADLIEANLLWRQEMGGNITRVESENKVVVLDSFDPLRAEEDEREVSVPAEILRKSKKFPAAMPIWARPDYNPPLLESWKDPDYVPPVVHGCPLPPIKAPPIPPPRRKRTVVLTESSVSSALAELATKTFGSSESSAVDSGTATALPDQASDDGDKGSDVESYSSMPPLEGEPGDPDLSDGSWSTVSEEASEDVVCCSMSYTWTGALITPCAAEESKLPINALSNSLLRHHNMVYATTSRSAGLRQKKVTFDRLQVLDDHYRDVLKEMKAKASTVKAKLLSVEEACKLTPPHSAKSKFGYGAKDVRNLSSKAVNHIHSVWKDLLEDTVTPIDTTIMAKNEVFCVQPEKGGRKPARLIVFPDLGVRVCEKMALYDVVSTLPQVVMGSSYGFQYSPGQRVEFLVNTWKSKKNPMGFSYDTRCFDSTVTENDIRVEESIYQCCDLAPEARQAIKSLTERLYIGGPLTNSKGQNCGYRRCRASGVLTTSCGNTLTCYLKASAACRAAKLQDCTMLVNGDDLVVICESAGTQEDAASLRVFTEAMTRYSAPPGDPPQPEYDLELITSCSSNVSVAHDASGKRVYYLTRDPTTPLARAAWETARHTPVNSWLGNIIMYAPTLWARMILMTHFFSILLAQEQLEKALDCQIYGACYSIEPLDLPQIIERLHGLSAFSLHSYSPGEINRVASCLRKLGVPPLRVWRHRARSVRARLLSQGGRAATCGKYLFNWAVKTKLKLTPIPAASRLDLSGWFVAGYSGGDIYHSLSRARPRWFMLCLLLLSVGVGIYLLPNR

Row | Compound | IC50 (HCV RdRp (NS5B)) | EC50 [1] | Selectivity Index (CC50/EC50) [1] | EC50 [1, 2] | EC50 ([1]; Hepatitis C virus, Huh-7, 24 h)
1 | Cc1ccc(NC(=O)[C@@H](CCCCN)NC(=O)Nc2ccc3c(c2)Cc2ccccc2-3)cc1 [Compound 173, (R)-6-AMINO-2-[3-(9H-FLUOREN-2-YL)-UREIDO]-HEXANOIC ACID P-TOLYLAMIDE] | < 10 µM | 2 to 0.5 μM | <20 | – | –
2 | Cc1ccc(NC(=O)[C@H](CCCCN)NC(=O)CNc2ccc(Oc3ccccc3)cc2)cc1 [Compound 368, (S)-6-AMINO-2-[2-(4-PHENOXY-PHENYLAMINO)-ACETYLAMINO]-HEXANOIC ACID P-TOLYLAMIDE] | < 10 µM | – | <20 | 0.5 to 2 µM | –
3 | Cc1cc2cc(NC(=O)[C@H](CCCCN)NC(=O)Nc3ccc(-c4ccccc4)cc3)ccc2[nH]1 [Compound 94, (S)-6-AMINO-2-(3-BIPHENYL-4-YL-UREIDO)-HEXANOIC ACID (2-METHYL-1H-INDOL-5-YL)-AMIDE] | < 10 µM | – | <20 | > 2 µM | –
4 | Cc1ccc(NC(=O)C(CCCCN)NC(=O)Nc2cccc(-c3ccccc3)c2)cc1 [Compound 127, (S)-6-AMINO-2-(3-BIPHENYL-3-YL-UREIDO)-HEXANOIC ACID P-TOLYLAMIDE] | 10 to 50 µM | – | <20 | > 2 µM | –
5 | NCCCC[C@H](NC(=O)OCC1c2ccccc2-c2ccccc21)C(=O)Nc1ccc(CN)cc1 [Compound 228, (S)-[5-AMINO-1-(4-AMINOMETHYL-PHENYLCARBAMOYL)-PENTYL]-CARBAMIC ACID 9H-FLUOREN-9-YLMETHYL ESTER] | < 10 µM | – | 20 to 100 | – | 0.5 µM
6 | NCCCC[C@H](NC(=O)Nc1ccc(-c2ccccc2)cc1)C(=O)Nc1ccc(C2CCCCC2)cc1 [Compound 119, (S)-6-AMINO-2-(3-BIPHENYL-4-YL-UREIDO)-HEXANOIC ACID (4-CYCLOHEXYL-PHENYL)-AMIDE] | < 10 µM | – | <20 | > 2 µM | –
7 | Cc1cc2cc(NC(=O)[C@H](CCNC(=O)CN)NC(=O)Nc3ccc4c(c3)Cc3ccccc3-4)ccc2[nH]1 [Compound 240, (S)-4-(2-AMINO-ACETYLAMINO)-2-[3-(9H-FLUOREN-2-YL)-UREIDO]-N-(2-METHYL-1H-INDOL-5-YL)-BUTYRAMIDE] | 10 to 50 µM | – | <20 | > 2 µM | –
8 | NCCCC[C@@H](NC(=O)Nc1ccc(-c2ccccc2)cc1)C(=O)Nc1ccc(C2CCCCC2)cc1 [Compound 142, (R)-6-AMINO-2-(3-BIPHENYL-4-YL-UREIDO)-HEXANOIC ACID (4-CYCLOHEXYL-PHENYL)-AMIDE] | < 10 µM | – | <20 | < 0.5 µM | –
9 | CC1CCC(NC(=O)[C@H](CCCCN)NC(=O)Nc2ccc(OCc3ccccc3)cc2)CC1 (stereo partly drawn) [Compound 264, (S)-6-AMINO-2-[3-(4-BENZYLOXY-PHENYL)-UREIDO]-HEXANOIC ACID (4-METHYL-CYCLOHEXYL)-AMIDE] | 10 to 50 µM | – | >100 | < 0.5 µM | –
10 | Cc1ccc(NC(=O)C(CCCCN)NC(=O)Nc2nnc(COc3ccc(C)cc3)s2)cc1 [Compound 272, (S)-6-AMINO-2-[3-(5-P-TOLYLOXYMETHYL-[1,3,4] THIADIAZOL-2-YL)-UREIDO]-HEXANOIC ACID P-TOLYLAMIDE] | 10 to 50 µM | – | 20 to 100 | 0.5 to 2 µM | –
11 | O=C(CC1CNCCN1C(=O)Nc1ccc(OCc2ccccc2)cc1)Nc1ccc(C2CCCCC2)cc1 (stereo not drawn) [Compound 163, 2-[(4-CYCLOHEXYL-PHENYLCARBAMOYL)-METHYL]-PIPERAZINE-1-CARBOXYLIC ACID (4-BENZYLOXY-PHENYL)-AMIDE] | 10 to 50 µM | – | <20 | < 0.5 µM | –
12 | NCCCC[C@@H](NC(=O)Nc1ccc(OCc2ccccc2)cc1)C(=O)Nc1ccc(C2CCCCC2)cc1 [Compound 166, (R)-6-AMINO-2-[3-(4-BENZYLOXY-PHENYL)-UREIDO]-HEXANOIC ACID (4-CYCLOHEXYL-PHENYL)-AMIDE] | < 10 µM | – | <20 | > 2 µM | –
13 | NCCCCC[C@H](NC(=O)Nc1ccc(OCc2ccccc2)cc1)C(=O)Nc1ccc(C2CCCCC2)cc1 [Compound 121, (S)-7-AMINO-2-[3-(4-BENZYLOXY-PHENYL)-UREIDO]-HEPTANOIC ACID (4-CYCLOHEXYL-PHENYL)-AMIDE] | < 10 µM | – | <20 | < 0.5 µM | –
14 | Cc1ccc(NC(=O)[C@H](CCCCN)NC(=O)CNc2ccccc2Oc2ccccc2)cc1 [Compound 366, (S)-6-AMINO-2-[2-(2-PHENOXY-PHENYLAMINO)-ACETYLAMINO]-HEXANOIC ACID P-TOLYLAMIDE] | < 10 µM | – | <20 | > 2 µM | –
15 | Cc1ccc(NC(=O)C(CCCCN)NC(=O)Nc2ccc(-c3nc4ccc(C)cc4s3)cc2)cc1 [Compound 214, (S)-6-AMINO-2-{3-[4-(6-METHYL-BENZOTHIAZOL-2-YL)-PHENYL]-UREIDO}-HEXANOIC ACID P-TOLYLAMIDE] | < 10 µM | – | <20 | > 2 µM | –
16 | COC(=O)c1ccc(COc2ccc(NC(=O)NC(CCCCN)C(=O)Nc3ccc(C)cc3)cc2)cc1 [Compound 199, (S)-4-{4-13-(5-AMINO-1-P-TOLYLCARBAMOYL-PENTYL)-UREIDO]-PHENOXYMETHYL}-BENZOIC ACID METHYL ESTER] | 10 to 50 µM | – | 20 to 100 | 0.5 to 2 µM | –
17 | Cc1ccc(NC(=O)C(CCCCN)NC(=O)Nc2ccc(-c3nc4ccccc4o3)cc2)cc1 [Compound 270, (S)-6-AMINO-2-[3-(4-BENZOOXAZOL-2-YL-PHENYL)-UREIDO]-HEXANOIC ACID P-TOLYLAMIDE] | 10 to 50 µM | – | <20 | > 2 µM | –
18 | Cc1cc2cc(NC(=O)[C@H](CCCCN)NC(=O)Nc3ccc4c(c3)Cc3ccccc3-4)ccc2[nH]1 [Compound 207, (S)-6-AMINO-2-[3-(9H-FLUOREN-2-YL)-UREIDO]-HEXANOIC ACID (2-METHYL-1H-INDOL-5-YL)-AMIDE] | < 10 µM | – | <20 | > 2 µM | –
19 | NCCCC[C@@H](NC(=O)Nc1ccc2c(c1)Cc1ccccc1-2)C(=O)Nc1ccc(C2CCCCC2)cc1 [Compound 137, (R)-6-AMINO-2-[3-(9H-FLUOREN-2-YL)-UREIDO]-HEXANOIC ACID (4-CYCLOHEXYL-PHENYL)-AMIDE] | < 10 µM | – | 20 to 100 | < 0.5 µM | –
20 | NCCCC[C@H](NC(=O)Nc1ccc(-c2ccccc2)cc1)C(=O)Nc1ccc(CN(C(=O)c2ccco2)C2CCCCC2)cc1 [Compound 26, (S)-FURAN-2-CARBOXYLIC ACID {4-[6-AMINO-2-(3-BIPHENYL-4-YL-UREIDO)-HEXANOYLAMINO]-BENZYL}-CYCLOHEXYL-AMIDE] | < 10 µM | – | <20 | > 2 µM | –
21 | NCCCCN(CC(=O)Nc1ccc(C2CCCCC2)cc1)C(=O)Nc1ccc(C=Cc2ccccc2)cc1 [Compound 324, 2-[1-(4-AMINO-BUTYL)-3-(4-STYRYL-PHENYL)-UREIDO]-N-(4-CYCLOHEXYL-PHENYL)-ACETAMIDE] | 10 to 50 µM | – | <20 | > 2 µM | –
22 | Cc1ccc(NC(=O)C(Cc2ccc(CN)cc2)NC(=O)Nc2ccc(-c3ccccc3)cc2)cc1 [Compound 145, (S)-3-(4-AMINOMETHYL-PHENYL)-2-(3-BIPHENYL-4-YL-UREIDO)-N-P-TOLYL-PROPIONAMIDE] | < 10 µM | – | <20 | > 2 µM | –
23 | CC1CCC(NC(=O)[C@H](CNC(=O)CN)NC(=O)Nc2ccc(OCc3ccccc3)cc2)CC1 (stereo partly drawn) [Compound 306, (S)-3-(2-AMINO-ACETYLAMINO)-2-[3-(4-BENZYLOXY-PHENYL)-UREIDO]-N-(4-METHYL-CYCLOHEXYL)-PROPIONAMIDE] | 10 to 50 µM | – | <20 | > 2 µM | –
24 | Cc1ccc(NC(=O)[C@H](CCCCN)NC(=O)CNc2cccc(Oc3ccccc3)c2)cc1 [Compound 367, (S)-6-AMINO-2-[2-(3-PHENOXY-PHENYLAMINO)-ACETYLAMINO]-HEXANOIC ACID P-TOLYLAMIDE] | < 10 µM | – | <20 | > 2 µM | –
25 | Cc1ccc(NC(=O)C[C@H](CCCCN)NC(=O)Nc2ccc(OCc3ccccc3)cc2)cc1 [Compound 246, (S)-7-AMINO-3-[3-(4-BENZYLOXY-PHENYL)-UREIDO]-HEPTANOIC ACID P-TOLYLAMIDE] | 10 to 50 µM | – | <20 | > 2 µM | –
